Data reported in patent US9880151B2, “Method of determining, identifying or isolating cell-penetrating peptides” (Phylogica Limited, priority 2011, dated 2018).

How the values were obtained:
[1] = test system: bEnd.3 mouse brain endothelial cells; assay: Fluorescent microscopy assessment of CPP internalisation; assay type: cell-based; conditions: 10 μM, CM and SF (FIGS. 25-28)
Procedure: (§1) CHO-K1 cells are seeded at 70,000 cells/slide chamber, and bEnd.3 cells are seeded at 40,000 cells/slide chamber. Cells are cultured for 24 h at 37° C. in 5% CO2, washed with PBS 1×, and FITC-labeled peptide (10 uM) is added to cells in 10% FBS (CM).
(§2) Alternatively, cells in serum-free (SF) medium are incubated for 1 h at 37° C., washed twice in PBS, fixed in 10% formaladehyde/PBS (15 min at RT), washed as before, incubated in, 300 nM DAPI/PBS solution for […] at RT, washed as before, and mounted onto slides.

[2] = test system: CHO-K1 cells; assay: Flow cytometry analysis of FITC-labelled peptide cell binding/uptake; assay type: cell-based, Chinese hamster; conditions: for cellular uptake into CHO-K1: 37° C. and 4° C. (FIG. 34); for cellular uptake into CHO-K1 cells measured using FITC: FIG. 36
Procedure: (§3) CHO-K1 and bEnd.3 cells were seeded in 6-well plates at 5×10^5 cells/well in culture medium and incubated for 24 h at 37° C. in 5% CO2. Culture media was aspirated, and cells washed once with PBS to remove debris. Then, 1 mL of media containing 10 or 20 μM of FITC-peptide was added to wells, and plates were incubated for 1 h at 37° C. in 5% CO2. The cells were washed twice with 1×PBS, and 1 mL of 0.25% trypsin/EDTA added per well, and incubated at 37° C. for 4 min. Reactions were stopped by dilution of trypsin with 2 mL complete media. Cells were dislodged by gentle titration and transferred to flow cytometry tubes, washed twice with FACS buffer (0.5% BSA/0.01% NaN3/PBS), collected by centrifugation for 4 min at 1500 rpm, and resuspended in 0.3 mL fixing buffer solution (1% formaldehyde in PBS). Cells were filtered through gauze before reading on BD LSRII flow cytometer.
(§4) Cells were seeded in 6-well plates and then grown for 24 hours before peptide was added for 1 hour at 37° C. Cells were harvested via trypsinization, and then assayed for peptide internalization/binding by flow cytometry.
(§5) The flow cytometry procedure was initially optimized using fluorophore-labelled TAT-PYC38. Subsequently, FITC-labelled peptides from the Phase 1-Pilot and Phase 2-CPP screens were assessed at 10 μM concentrations for internalization using CHO and bEnd3 cells. Peptides that scored as positive in the cell binding/internalization assay were subjected to further analysis using different temperatures and cell lines to determine cell selectivity. The cell-binding/uptake activity of pure (>85% purity) and Pepset (purity ranges from 40-80%) peptides was also compared to determine whether peptide purity affected CPP activity.

[3] = test system: CHO-K1 cells; assay: Fluorescent microscopy assessment of CPP internalisation; assay type: cell-based, Chinese hamster; conditions: 10 μM, CM and SF (FIGS. 30-32)
Procedure: as §1, §2

[4] = test system: bEnd.3 cells; assay: Flow cytometry analysis of FITC-labelled peptide cell binding/uptake; assay type: cell-based, mouse; conditions: FIG. 36
Procedure: as §3, §4, §5

[5] = test system: CHO or bEnd.3 cells; assay: Live confocal microscopy screen for cell internalization, cell line not specified per result; assay type: cell-based; conditions: for cellular uptake by confocal microscopy: 10 μM (FIG. 20)
Procedure: (§6) bEnd.3 and CHO-K1 cells were seeded at 3×10^4/well and 5×10^4/well respectively, on 8-well Lab-Tek H chambered coverglass slides. Slides were incubated for 24 h prior to analysis at 37° C. at 5% CO2. Wells were washed twice with medium containing 1% FBS, and 5-10 μM FITC-labeled peptide in 1% FBS media was added to wells, and cells were imaged at 30 and 60 minutes later.
(§7) Briefly, bEnd.3 and CHO cells were seeded at subconfluent density (˜50%) on 8-well chambered coverglasses, incubated for 24 hrs, washed with culture medium containing 1% FBS and then incubated with 5-30 μM of labelled peptide for 1 hr in culture media containing 1% FBS before being imaged using confocal microscopy.

[6] = test system: primary cortical neuronal cultures; assay: Glutamate excitotoxicity assay, neuroprotection by CPP-PYC36 fusions; assay type: cell-based; conditions: PYC36 alone, data not shown
Procedure: Peptides ID 4052 (SEQ ID NO: 16; Table 10), Peptides ID 4052a (SEQ ID NO: 26; Table 10), and TAT peptide ([…]; SEQ ID NO: 28) were each produced as fusions to the neuroprotective peptide PYC36 ([…]; SEQ ID NO: 29) described in WO 2008/034161. The fusion peptides were assayed for their ability to confer survival on primary cortical neuronal cultures by glutamate excitotoxicity assay as described in Example of WO 2008/034161.

[7] = test system: CHO-K1 cells; assay: Live confocal microscopy of FITC-labelled peptides; assay type: cell-based, Chinese hamster; conditions: 60 minutes (FIG. 18)
Procedure: as §6, §7

[8] = test system: cells; assay: Flow cytometry optimisation with FITC-labelled PYC38 (+/-TAT); assay type: cell-based; conditions: FITC-labelled peptide
Procedure: as §4, §5

[9] = test system: endosome; conditions: Sugita et al. 2008; cited from earlier work

Row | Substance | internalisation into bEnd.3 cells, fluorescent microscopy [1] | internalisation into CHO-K1 cells, fluorescent microscopy [3] | cellular uptake into CHO-K1 cells measured using FITC [2] | cellular uptake into bEnd.3 cells measured using FITC [4] | other results
1 | 0045 (PFLKRVPACLRLRR) [compound 0045] | evidence for internalisation of the peptide into bEnd.3 cells | evidence for internalisation of the peptide into CHO-K1 cells |  |  | cellular uptake into CHO-K1 [2]: high uptake
2 | 4052 (WGCCGRSSRRRRTR) [compound 4052] |  |  | high uptake | high uptake | 
3 | 5008 (PYSRPHVQLWYPNRESCRSLIRSLGP) [compound 5008] | evidence for internalisation of the peptide into bEnd.3 cells | evidence for internalisation of the peptide into CHO-K1 cells | high uptake | high uptake | 
4 | 9170 (RCGRASRCRVRWMRRRRI) [compound 9170] | evidence for internalisation of the peptide into bEnd.3 cells | evidence for internalisation of the peptide into CHO-K1 cells | high uptake | high uptake | cellular uptake into CHO-K1 [2]: high uptake; cellular uptake by confocal microscopy [5]: evidence for cellular uptake
5 | GLQGRRRQGYQSIKP (GLQRRRQGYQSIKP) [PYC36, neuroprotective peptide described in WO 2008/034161] |  |  |  |  | neuroprotective activity following glutamate induced neural damage [6]: negligible neuroprotective activity
6 | RFRCGRRKWQIGS [Peptide ID 9072, arginine-rich TAT-like CPP from non-coding region] |  |  |  |  | uptake into CHO-K1 cells, flow cytometry curve ([2]; 10 μM, 37° C., vs PYC38-TAT positive control (FIG. 15)): largely overlaps with that for the positive control; cellular uptake by confocal microscopy [5]: evidence for cellular uptake
7 | WTISSRRRKVNRAC [Peptide ID 4063, arginine-rich TAT-like CPP from non-coding region] |  |  |  |  | uptake into CHO-K1 cells by confocal microscopy ([7]; 10 μM peptide): evidence of the uptake; uptake into CHO-K1 cells by confocal microscopy ([7]; 30 μM peptide): uptake
8 | rhaplarGswrGqpqqGpqrrGqlGG [PYC38, reference compound] |  |  |  |  | level of cell binding/internalization, PYC38-TAT versus PYC38 [8]: significantly lower; uptake by confocal microscopy, control peptides ([5]; 5-30 μM labelled peptide, 1 hr): no uptake; uptake into CHO-K1 cells by confocal microscopy ([7]; 5 μM peptide): no detectable evidence of uptake
9 | transferrin: named in cited endosome escape study |  |  |  |  | efficiency of endosome escape [9]: low
